{"source": "patent US20060281700A1", "about": "“SYNERGISTIC MODULATION OF FLT3 KINASE USING AMINOPYRIMIDINES KINASE MODULATORS” (priority 2005, published 2006)", "key": {"[1]": {"tested_on": "cells that depend on FLT3 for growth", "assay": "Standard 72-hour cell proliferation assay, FLT3 dependent cell lines taken together", "format": "cell-based", "settings": "72-hour proliferation; depending on the cell type", "protocol": "The cell lines that were tested included those that are dependent on FLT3ITD mutant activity for growth (MV4-11 and Baf3-FLT3ITD), FLT3 wt activity for growth (Baf3FLT3) and those that grow independent of FLT3 activity (THP-1). […] Baf3-FLT3 and Baf3-FLT3ITD cell lines were obtained from Dr. Michael Henrich and the Oregon Health Sciences University. The Baf3 FLT3 cell lines were created by stable transfection of parental Baf3 cells (a murine B cell lymphoma line dependent on the cytokine IL-3 for growth) with either wild-type FLT3 or FLT3 containing the ITD insertion in the juxatamembrane domain of the receptor resulting in its constitutive activation. Cells were selected for their ability to grow in the absence of IL-3 and in either the presence of FLT3 ligand (Baf3-FLT3) or independent of any growth factor (Baf3-ITD). […]\nDose responses for the individual compounds alone were determined for each cell line using a standard 72-hour cell proliferation assay (see FIGS. 6.1-6.8). […]\nCell proliferation assay for MV4-11, Baf3-ITD, Baf3-FLT3 and THP-1 cells. […] Total cell growth is quantified as the difference in luminescent counts (relative light units, RLU) of cell number at Day 0 compared to total cell number at Day 3 (72 hours of growth and/or compound treatment). One hundred percent inhibition of growth is defined as an RLU equivalent to the Day 0 reading. […]"}, "[2]": {"tested_on": "MV4-11 cells", "assay": "Annexin V Staining (apoptosis)", "format": "cell-based, human", "settings": "MV4-11, 48 hours, fixed ratio 4:1 Tipifarnib and Compound A", "text": "The ultimate goal of treatment for FLT3 related disorders is to kill the disease causative cells and to cause regression of disease. […] Annexin V binding to phosphotidyl serine that has translocated from the inner leaflet of the plasma membrane to the outer leaflet of the plasma membrane and is a well established way to measure apoptosis of cells. See van Engeland M., L. J. Nieland, et al. (1998) “Annexin V-affinity assay: a review on an apoptosis detection system based on phosphatidylserine exposure.” Cytometry. 31(1):1-9.\nAfter the compound incubations, treated cells were harvested and stained with Annexin V-PE and 7-AAD using the Guava Nexin apoptosis kit according to the protocol in the Biological Activity Measurements section hereafter. Annexin V staining peaks at 60% because cells late in apoptosis begin to fall apart and are considered debris. […] Statistical analysis using the above described method of Chou and Talalay was also performed to determine the synergy of the combination. […] The magnitude of the synergistic induction of apoptosis of MV4-11 cells by the combination of an FTI and a FLT3 inhibitor could not be predicted by those skilled in the art. […]\nAnnexin V Staining. […] All annexin positive cells were considered apoptotic and percent Annexin positive cells was calculated."}}, "data": [{"smiles": "Cn1cncc1C(N)(c1ccc(Cl)cc1)c1ccc2c(c1)c(-c1cccc(Cl)c1)cc(=O)n2C", "note": "(single isomer, unassigned; (+)) [Tipifarnib, (+)-6-[amino(4-chlorophenyl)(1-methyl-1H-imidazol-5-yl)methyl]-4-(3-chlorophenyl)-1-methyl-2(1H)-quinolinone]", "values": [{"measurement": "single agent potency for inhibition of proliferation", "setting": "[1]", "value": "high nanomolar to high picomolar range"}, {"measurement": "shift of EC50 for the induction of annexin V staining in combination", "setting": "[2]", "value": "more than eight-fold"}]}]}
